The values that follow come from US11279678B2 (SHANGHAI ECUST BIOMEDICINE CO., LTD., priority 2017, dated 2022).

Data set [1] deals with Hela cervical cancer cell line. In words: In vitro proliferation inhibition of Hela cervical cancer cell line (MTT method). It counts as cell-based. The settings on record: Homo sapiens, Hela cervical cancer cell line. On the procedure: Evaluation of In Vitro Antitumor Activity of Hela Cervical Cancer Tumor Cell Lines with Compounds (MTT Method)
The cells were cultured in RPMI1640 medium containing 200 mL/L fetal bovine serum so that the cells were kept at logarithmic growth. The cells were inoculated to 96-well plate, with a density of 4˜8×10^4/ml, 37° C., and pre-cultured for 24 hours with added drugs. The drugs were set at 6 concentrations, each has 3 holes. After 48 hours of consequent effect, the nutrient solution was then removed and the cells were left for air-drying. Each hole was then added with cold 500 g/L trichloroacetic acid (TCA) 50 μL (final concentration of 100 g/L). After setting for 60 minutes, it was then rinsed for 4-5 times with ionized water and dried. Each hole then was added with 4 g/L SRB 100 μL left for 30 mins. Then it was rinsed with 10 mL/L acetic acid for 4 times, dried. Then 10 mmol Tris-base 200 μL per hole was added, then shaked and mixed, subsequently, oscillating on the plate oscillator for 5 min. The enzyme-linked immunoassay was used to determine the A value. To calibrate, a blank control was used, with a wavelength of 490 nm. Tumor inhibition rate (%)=(Average A value of the control cell hole−Average A value of the drugged hole A)/Average A value of the control cell hole×100%. The positive control cell holes were CA4, CB1, and CB1N. To calculate the IC50 value, the Logit method was used according to the cell growth inhibition rate of different concentrations of the drug.

The subject of data set [2] is human gastric cancer cell MGC-803. The data set can be described thus: In vitro antitumor activity on tumor cell lines (CCK-8 method), MGC-803. It counts as cell-based. The settings on record: Homo sapiens, MGC-803, 72 hours. On the procedure: (§1) Evaluation of In Vitro Antitumor Activity of Compounds on Multiple Tumor Cell Lines (CCK-8 Method)
(§2) Take the living cells with more than 90% cells for testing. The cell proliferation inhibition test was performed using the EnoGeneCell™ Counting Kit-8 (CK-8) cell viability test kit. The cell was digested, counted and prepared into a cell suspension with a concentration of 1×10^5/mL. 100 μL cell suspension (1×10^4 cells per hole) was added to each hole in the 96-well plate. The 96-well plate was cultured in a 37° C., 5% CO2 incubator for 24 hours. With every hole added with 100 μL respective drugged cultured medium, control groups were set up, including negative control group, solvent control group, and positive control group. Each group has 5 holes. The 96-well plates were cultured at 37° C., in 5% CO2 incubator for 72 hours. Afterward, 10 μL CCK-8 solution was added to each hole, and the culture plate was incubated in the incubator for 4 hours, and the OD value at 450 nm was determined by enzyme labeling instrument. The inhibition rate and IC50 value of these compounds on tumor cells such as human gastric cancer cell MGC-803, human liver cancer cell HepG2, human lung cancer cell A549 and human breast cancer cell MDA-MB-231 were calculated.
For orientation: Tetrazolium dyes change colour on reduction, which living cells bring about.

Data set [3] concerns human liver cancer cell HepG2. The data set can be described thus: In vitro antitumor activity on tumor cell lines (CCK-8 method), HepG2. It counts as cell-based. As to conditions: Homo sapiens, HepG2, 72 hours. On the procedure:
as §1, §2

Data set [4] has as its system human lung cancer cell A549. The data set can be described thus: In vitro antitumor activity on tumor cell lines (CCK-8 method), A549. The settings on record: Homo sapiens, A549, 72 hours. It counts as cell-based. As to the method:
as §1, §2

Data set [5] deals with human breast cancer cell MDA-MB-231. In words: In vitro antitumor activity on tumor cell lines (CCK-8 method), MDA-MB-231. It counts as cell-based. As to conditions: Homo sapiens, MDA-MB-231, 72 hours. As to the method: as §1, §2
Data set [6] has as its system gastric cancer MGC-803 transplanted tumor. The data set can be described thus: Antitumor rate of oral administration in mice with MGC-803 transplanted tumor. It counts as in vivo. As to conditions: for Tumor inhibition rate (%): d0-d12 every 2 days, 7 times, tumor weight; for tumor size course: about 8 days after administration. On the procedure:
Antitumor rate of oral administration of the compound towards MGC-803 mice with transplanted tumor
After 1 week of adaptation, the mice were inoculated with gastric cancer MGC-803 tumor tissue subcutaneously. After the tumor grew for 100-300 mm^3, the animals were randomly grouped. For the drug group, each group of each compound had 6 mice, and 12 mice were in the control group. The intragastric administration was employed and the dosage of Ii, Ij, Ik and Il was 25 and 50 mg/kg. The positive control was CA4, the administration time was d0, d2, d4, d6, d8, d10, d12 days, 7 times in total. The tumor size was measured 3 times per week, together with mice weight. The mice were executed 14 days after inoculation and the tumor mass was taken and measured for its weight. The tumor inhibition rate was calculated as tumor weight inhibition rate, and the formula is tumor weight inhibition rate %=(1-treatment group average tumor weight/control group average tumor weight)×100%.

Another data set is described as follows: in vivo. As to conditions: both, Kunming, mouse, po.
The conditions of data set [7]: single intragastric administration, mice.
Procedure: (§3) Acute Toxicity Test of Single Gastric Administration in Mice
(§4) Kunming mice (weight 17-22 g, equal male and female) were randomly grouped according to body weight, with 10 mice maximum per dose group in the experiment. […] Given by single intraperitoneal injection and a single intragastric injection, observations were done after 0.25 h, 0.5 h, 1 h, 2 h, 4 h, and 24 h respectively. The mortality rate was recorded. Afterward, the groups were observed once everyday, and the mortality rate was recorded for 14 days. On day 15, the living mice were sacrificed for pathological dissection.
[8] abbreviates: 48 hours drug exposure, read-out: IC50.

SMILES strings stand for the structures. Read-outs that look alike come from different tables or passages of the source.

Procedure for in vivo: as §3, §4

The term LD50 denotes the dose at which mortality reaches 50%. In the case of `COc1ccc(CCc2cc(OC)c(OC)c(OC)c2)cc1OC(=O)CCn1cc(F)c(=O)[nH]c1=O` [Compound Il, 5-(3,4,5-trimethoxyphenethyl)-2-methoxyphenyl-3-(5-fluoro-2,4-dioxo-3,4-dihydropyrimidin-1(2H)-yl)propanoate], the IC50 is 0.0296 µM in data set [1] (setting [8]); less than 0.0003 µM in data set [2]; 0.0004 µM in data set [3]; less than 0.0003 µM in data set [4]; 0.00025 µM in data set [5]. The entries for the “Tumor inhibition rate (%)” value in data set [6] (25 mg/kg intragastric) and in data set [6] (50 mg/kg intragastric) were 65% and 90%, respectively. For the same compound, the tumor size course entry in data set [6] is “tendency to shrink”. This compound returned an LD50 at 14 days in “in vivo” greater than 1000 mg/kg. In addition, in data set [7], the “LD50” value was found to be 1228 mg/kg.

For the compound `COc1ccc(/C=C\c2cc(OC)c(OC)c(OC)c2)cc1O` [CA4, combretastatin A-4, reference compound], the IC50 was 0.4 µM in data set [1] (setting [8]); 0.4 µM in data set [1] (read-out: IC50 values, Hela proliferation inhibition); 0.0206 µM in data set [2]; 1280 µM in data set [3]; 0.00254 µM in data set [4]; 0.0033 µM in data set [5]. The LD50 in “in vivo” worked out at 1280 mg/kg.

For `COc1ccc(/C=C\c2cc(OC)c(OC)c(OC)c2)cc1OC(=O)CCn1cc(F)c(=O)[nH]c1=O` [Compound Ik, (Z)-5-(3,4,5-trimethoxystyryl)-2-methoxyphenyl-3-(5-fluoro-2,4-dioxo-3,4-dihydropyrimidin-1(2H)-yl)propanoate], the IC50 in data set [1] (setting [8]) was 0.0296 µM; in data set [2], less than 0.0003 µM; in data set [3] it was 7.33 µM; in data set [4] it was less than 0.0003 µM; in data set [5], 80.7 µM. The “Tumor inhibition rate (%)” value in data set [6] (25 mg/kg intragastric) came out at 48%; in data set [6] (50 mg/kg intragastric), 75%. In addition, the tumor size course result in data set [6] is given as “tendency to shrink”. The same compound displayed an LD50 at 14 days in “in vivo” greater than 1000 mg/kg. In data set [7], the 50% lethal dose (LD50) came to 1185 mg/kg.
